# Measurements: PMC8896685 (PLoS ONE, 2022)
# pEC50, pIC50: −log10 of the molar value. Numbered stars: 1 amine (or outer) side, 2 acyl side, 3 side chain; on linkers, the order of the positions; unused ones are H or OH. Square brackets hold non-standard residues; d marks the D form. Side chains are listed from the residue outwards. Peptide text beside a SMILES is read from it. * marks the point of attachment. C18 diacid = O=C(O)CCCCCCCCCCCCCCCCC(=O)*; γGlu = O=C(O)[C@H](CCC(=O)[*:2])N[*:1]; Desaminohistidyl = O=C(CCc1c[nH]cn1)*; Ac4c = NC1(C(=O)O)CCC1; AEEA = NCCOCCOCC(=O)O; Aib = CC(C)(N)C(=O)O
# Key:
# Mouse GLP-1R = molecular target: T1, Mouse GLP-1R (Mus musculus, UniProt O35659); assay: Receptor potency, CRE-luciferase functional assay in BHK cells; format: cell-based; conditions: Mouse receptors, whole BHK cells, 3 h 37°C, value (95% CI)
# T1 construct: a plasmid encoding either the glucagon receptor or the GLP-1 receptor from the relevant species; expressed in transfected cells
# T1 sequence (O35659 22-463): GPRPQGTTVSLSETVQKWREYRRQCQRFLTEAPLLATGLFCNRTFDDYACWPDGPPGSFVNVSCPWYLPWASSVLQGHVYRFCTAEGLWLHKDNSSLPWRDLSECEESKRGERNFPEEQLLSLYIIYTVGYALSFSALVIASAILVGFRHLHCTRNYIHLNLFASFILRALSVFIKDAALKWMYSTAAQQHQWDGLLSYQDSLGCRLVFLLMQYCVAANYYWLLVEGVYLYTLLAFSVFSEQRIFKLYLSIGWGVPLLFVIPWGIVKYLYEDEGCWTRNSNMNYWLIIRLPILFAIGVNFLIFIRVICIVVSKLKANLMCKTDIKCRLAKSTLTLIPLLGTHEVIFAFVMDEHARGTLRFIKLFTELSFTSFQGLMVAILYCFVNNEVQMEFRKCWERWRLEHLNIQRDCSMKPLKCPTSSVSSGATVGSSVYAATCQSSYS
# Description: (§1) The binding assay was performed on cell membranes in the presence of 1% (v/v) species-specific heparin-treated pooled plasma (Bioreclamation IVT, Westbury, NY) diluted in assay buffer (50 mM HEPES supplemented with 5 mM EGTA, 5 mM MgCl2, and 0.005% (v/v) Tween 20, pH7.4). […] Cells stably expressing an individual receptor of interest were grown at 5% CO2, 37°C in DMEM (supplemented with 10% FCS, 0.5 mg/ml G418 and 0.3 mg/ml hygromycin). Membrane preparations were made from cells harvested at approximately 80% confluence, washed and homogenized in 20 mM HEPES with 0.1 mM EDTA, pH 7.4. Protein concentration was determined, and the membranes were stored at -80°C until use. The membrane binding assay was performed in a 96-well OptiPlate (PerkinElmer) in a total volume of 200 μl. Test compounds were dissolved in 80% DMSO and further diluted in assay buffer. 50 μl of diluted plasma was added to the assay plate wells followed by addition of test compounds (25 μl), cell membranes (50 μl, 0.06 mg/ml), SPA beads (20 mg/ml in assay buffer) and radioligand (60,000 cpm/well, corresponding to 0.06 nM; 2200 Ci/mmol. Each assay plate was incubated for 2 h at 30°C, centrifuged at 1500 rpm for 10 minutes and counted in a TopCount NXT instrument (PerkinElmer).
# (§2) Functional assays were performed on whole cells in the absence or presence of 100% species-specific heparin-treated pooled plasma (Bioreclamation IVT). […] The cells were cultured with DMEM (supplemented with GlutaMAX, 10% FBS, 0.5 mg/ml G418 and 0.3 mg/ml hygromycin) at 5% CO2 and 37°C. At approximately 80–90% confluence, cells were washed with PBS and harvested with Versene (Life Technologies, Carlsbad, CA). The cells were counted and plated into 96-well microtiter plates coated with poly-D-Lys (Corning BioCoat) with 5,000 cells/well and thereafter incubated overnight in growth media. The next day the media was changed to assay buffer (DMEM without phenol red, supplemented with GlutaMAX, 10 mM HEPES, 1% ovalbumin and 0.1% Pluronic F-68) or to 100% plasma. In the absence of plasma, compounds were diluted in assay buffer. In assays tested with plasma, compounds were diluted in pure plasma. Buffer was removed from the plates and 50 μl of test compound dilutions was added to the plates followed by 50 μl of plasma or the same buffer used for compound dilution. The assay plates were incubated for 3 h in a 5% CO2 incubator at 37°C. The plates were then transferred to room temperature for 15 min and 100 μl Steadylite Plus reagent (PerkinElmer) was added to each well. The plates were shaken for 30 min at room temperature while protected from light after which luminescence was measured.
# (§3) For the receptor binding assays, logIC50 values were calculated using non-linear regression analysis. The error estimation was reported as the 95% confidence interval. […] The calculations were performed in GraphPad Prism 6.4 (GraphPad, San Diego, CA) and error estimation was expressed as the 95% confidence interval. […] Averages, error estimation, ratios and plasma shifts were all calculated on logIC50 or logEC50 values and transformed to the anti-log values for reporting purposes.
# Rat GCGR = molecular target: T2, Rat GCGR (Rattus norvegicus, UniProt P30082); assay: as above; format: cell-based; conditions: Rat receptors, whole BHK cells, 0% plasma, 3 h 37°C, value (95% CI)
# T2 construct: a plasmid encoding either the glucagon receptor or the GLP-1 receptor from the relevant species; expressed in transfected cells
# T2 sequence (P30082 27-485): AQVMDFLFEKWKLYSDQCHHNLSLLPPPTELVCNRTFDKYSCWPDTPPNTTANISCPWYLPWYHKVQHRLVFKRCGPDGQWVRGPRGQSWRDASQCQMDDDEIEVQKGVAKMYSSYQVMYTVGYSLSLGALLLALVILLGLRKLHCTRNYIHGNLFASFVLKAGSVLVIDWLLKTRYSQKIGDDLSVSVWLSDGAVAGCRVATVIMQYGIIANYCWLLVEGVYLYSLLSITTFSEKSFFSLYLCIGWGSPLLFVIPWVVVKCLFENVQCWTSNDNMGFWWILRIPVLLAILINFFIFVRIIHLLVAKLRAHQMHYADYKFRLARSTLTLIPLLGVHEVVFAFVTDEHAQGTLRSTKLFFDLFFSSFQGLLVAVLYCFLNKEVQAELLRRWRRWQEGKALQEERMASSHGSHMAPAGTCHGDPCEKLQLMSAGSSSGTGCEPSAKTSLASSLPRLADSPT
# Description: as §1, §2, §3
# DIO rats [1] = assay: Subchronic effect on body weight, body composition and food intake in DIO rats; format: in vivo, rat; conditions: three weeks; for Weight loss: 3 nmol/kg each compound s.c. once daily; for Cumulative food intake: 3 nmol/kg s.c. once daily
# Source text: Male C57Bl/6J mice were purchased from Jackson Lab (Bar Harbour, ME) or Taconic, (Denmark). Male Sprague Dawley rats were purchased from Taconic (Denmark). Lean animals were fed regular chow diet (Altromin 1324, Brogaarden, Denmark). Obese animals were fed a high-fat diet, 45% kcal from fat (D12492, Research Diets, New Brunswick, NJ) from the age of 4–6 weeks in order to obtain a diet induced obese (DIO) phenotype. Animals were housed under temperature and humidity-controlled conditions in a 12:12 hr light:dark cycle (lights on at 6 a.m.). Rats were housed three per cage during high fat feeding and were single housed five weeks prior to study. Mice were single housed, two per cage, with a partitioning wall where possible. All animals had ad libitum access to diet and water, except when fasted prior to experimental procedures. Animals were acclimatized to study conditions (energy expenditure cages, daily mock handling etc) at least one week prior to first dose. […] At the time of study, animals were 20–30 weeks old with a body weight of 45–50 g (DIO mice) or approximately 600 g (DIO rats). […] Oral glucose tolerance was evaluated on study day 15, 5 h post-dosing (at Cmax). Animals were fasted for 5 h prior to oral administration of glucose (3 g/kg). […] Conscious animals were MR-scanned prior to initiation of treatment and at the end of the treatment period.
# DIO mice = assay: Subchronic effect on glucose tolerance in DIO mice (IPGTT at steady state); format: in vivo, mouse; conditions: after 3 weeks daily s.c. dosing, Cmax (5 h post dosing), p<0.001
# Mouse GCGR = molecular target: T3, Mouse GCGR (Mus musculus, UniProt Q61606); assay: Receptor binding, SPA competitive binding assay; conditions: SPA competitive binding on BHK cell membranes, [125I]-glucagon tracer, 1% species specific plasma, 2 h 30°C; value (95% CI)
# T3 construct: a plasmid encoding either the glucagon receptor or the GLP-1 receptor from the relevant species; expressed in transfected cells
# T3 sequence (Q61606 27-485): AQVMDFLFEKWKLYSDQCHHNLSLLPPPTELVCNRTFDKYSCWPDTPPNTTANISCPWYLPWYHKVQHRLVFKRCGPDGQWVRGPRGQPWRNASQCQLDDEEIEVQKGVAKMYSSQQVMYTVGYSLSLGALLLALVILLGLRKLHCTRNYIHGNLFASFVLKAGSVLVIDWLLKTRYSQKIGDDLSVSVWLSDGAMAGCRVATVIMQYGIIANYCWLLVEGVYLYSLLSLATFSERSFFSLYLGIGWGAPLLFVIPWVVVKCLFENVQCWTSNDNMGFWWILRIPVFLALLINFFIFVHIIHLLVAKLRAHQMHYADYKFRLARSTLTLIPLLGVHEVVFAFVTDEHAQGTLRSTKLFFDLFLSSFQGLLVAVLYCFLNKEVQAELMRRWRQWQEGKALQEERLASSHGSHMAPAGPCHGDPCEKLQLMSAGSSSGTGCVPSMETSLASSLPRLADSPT
# Description: as §1, §3
# DIO rats [2] = assay: Oral glucose tolerance in DIO rats at steady state; format: in vivo, rat; conditions: 3 nmol/kg s.c. once daily, 3 g/kg oral glucose, p<0.05
# Description: Oral glucose tolerance was evaluated on study day 15, 5 h post-dosing (at Cmax). Animals were fasted for 5 h prior to oral administration of glucose (3 g/kg). […] Conscious animals were MR-scanned prior to initiation of treatment and at the end of the treatment period.
# [3] = GLP-1R EC50, pM (95% CI) 100% plasma, 100% species-specific plasma
Compound,EC50 (Mouse GLP-1R; [3]) [pM],pEC50 (Rat GCGR),Weight loss (DIO rats [1]) [%],Cumulative food intake (DIO rats [1]),"EC50 (Mouse GLP-1R; GLP-1R EC50, pM (95% CI) 0% plasma, 0% plasma) [pM]",Basal blood glucose vs vehicle (DIO mice),pIC50 (Mouse GCGR),Oral glucose tolerance vs vehicle (DIO rats [2])
CC(C)C[C@H](NC(=O)[C@H](CC(C)C)NC(=O)[C@H](Cc1c[nH]c2ccccc12)NC(=O)[C@H](CCC(N)=O)NC(=O)[C@@H](NC(=O)[C@H](Cc1ccccc1)NC(=O)[C@H](CCC(=O)O)NC(=O)[C@H](CCCNC(=N)N)NC(=O)[C@H](C)NC(=O)[C@H](C)NC(=O)[C@H](CCCNC(=N)N)NC(=O)[C@H](CO)NC(=O)[C@H](CC(=O)O)NC(=O)[C@H](CC(C)C)NC(=O)[C@H](Cc1ccc(O)cc1)NC(=O)[C@H](CCCCN)NC(=O)[C@H](CO)NC(=O)[C@H](CC(C)C)NC(=O)[C@H](CC(=O)O)NC(=O)[C@H](CO)NC(=O)[C@@H](NC(=O)[C@H](Cc1ccccc1)NC(=O)[C@@H](NC(=O)CNC(=O)[C@H](CCC(=O)O)NC(=O)C(C)(C)NC(=O)[C@@H](N)Cc1c[nH]cn1)[C@@H](C)O)[C@@H](C)O)C(C)C)C(=O)N[C@@H](CC(N)=O)C(=O)N[C@@H](CCCCNC(=O)CC[C@H](NC(=O)CC[C@H](NC(=O)COCCOCCNC(=O)COCCOCCNC(=O)CC[C@H](NC(=O)CCCCCCCCCCCCCCCCC(=O)O)C(=O)O)C(=O)O)C(=O)O)C(N)=O [GLP-1 reference] (H-H[Aib]EGTFTSDLSKYLDSRAAREFVQWLLNK([γGlu-γGlu-AEEA-AEEA-γGlu-C18 diacid])-NH2),24.6,7.45,5,equal reduction,,,,
CC(C)C[C@H](NC(=O)[C@H](CC(=O)O)NC(=O)[C@H](CC(C)C)NC(=O)[C@H](Cc1ccc(O)cc1)NC(=O)[C@H](CCCCN)NC(=O)[C@H](CO)NC(=O)[C@H](CC(C)C)NC(=O)[C@H](CC(=O)O)NC(=O)[C@H](CO)NC(=O)[C@@H](NC(=O)[C@H](Cc1ccccc1)NC(=O)[C@@H](NC(=O)CNC(=O)[C@H](CCC(N)=O)NC(=O)C1(NC(=O)[C@@H](N)Cc2c[nH]cn2)CCC1)[C@@H](C)O)[C@@H](C)O)C(=O)N[C@@H](CCCNC(=N)N)C(=O)N[C@@H](CCCNC(=N)N)C(=O)N[C@@H](C)C(=O)N[C@@H](CCCNC(=N)N)C(=O)N[C@@H](CC(=O)O)C(=O)N[C@@H](Cc1ccccc1)C(=O)N[C@H](C(=O)N[C@@H](CCC(N)=O)C(=O)N[C@@H](Cc1c[nH]c2ccccc12)C(=O)N[C@@H](CC(C)C)C(=O)N[C@@H](CC(C)C)C(=O)N[C@@H](CCCCNC(=O)CC[C@H](NC(=O)CC[C@H](NC(=O)COCCOCCNC(=O)COCCOCCNC(=O)CC[C@H](NC(=O)CC[C@H](NC(=O)CCCCCCCCCCCCCCCCC(=O)O)C(=O)O)C(=O)O)C(=O)O)C(=O)O)C(=O)N[C@H](C(N)=O)[C@@H](C)O)C(C)C [NN1151] (H-H[Ac4c]QGTFTSDLSKYLDLRRARDFVQWLLK([γGlu-γGlu-AEEA-AEEA-γGlu-γGlu-C18 diacid])T-NH2),161,,,,1.13,improved,,
CC(C)C[C@H](NC(=O)[C@H](Cc1ccc(O)cc1)NC(=O)[C@H](CCCCN)NC(=O)[C@H](CO)NC(=O)[C@H](CC(C)C)NC(=O)[C@H](CC(=O)O)NC(=O)[C@H](CO)NC(=O)[C@@H](NC(=O)[C@H](Cc1ccccc1)NC(=O)[C@@H](NC(=O)CNC(=O)[C@H](CCC(N)=O)NC(=O)C(C)(C)NC(=O)[C@@H](N)Cc1c[nH]cn1)[C@@H](C)O)[C@@H](C)O)C(=O)N[C@@H](CCC(=O)O)C(=O)N[C@@H](CO)C(=O)N[C@@H](CCCCN)C(=O)N[C@@H](CCCNC(=N)N)C(=O)N[C@@H](C)C(=O)N[C@@H](CCCNC(=N)N)C(=O)N[C@@H](CCC(=O)O)C(=O)N[C@@H](Cc1ccccc1)C(=O)N[C@H](C(=O)N[C@@H](CCC(N)=O)C(=O)N[C@@H](Cc1c[nH]c2ccccc12)C(=O)N[C@@H](CC(C)C)C(=O)N[C@@H](CC(C)C)C(=O)N[C@@H](CCCCNC(=O)CC[C@H](NC(=O)CC[C@H](NC(=O)[C@H](CO)NC(=O)[C@H](CCC(=O)O)NC(=O)[C@H](CO)NC(=O)CC[C@H](NC(=O)CC[C@H](NC(=O)CCCCCCCCCCCCCCCCC(=O)O)C(=O)O)C(=O)O)C(=O)O)C(=O)O)C(=O)N[C@H](C(N)=O)[C@@H](C)O)C(C)C [NN1177] (H-H[Aib]QGTFTSDLSKYLESKRAREFVQWLLK([γGlu-γGlu-Ser-Glu-Ser-γGlu-γGlu-C18 diacid])T-NH2),12.6,11.74,20,equal reduction,,,9.54,significantly impaired
CC[C@H](C)[C@H](NC(=O)[C@H](Cc1ccccc1)NC(=O)[C@H](CCC(=O)O)NC(=O)[C@H](CCCNC(=N)N)NC(=O)[C@H](C)NC(=O)[C@H](C)NC(=O)[C@H](CCC(N)=O)NC(=O)[C@H](CCC(=O)O)NC(=O)[C@H](CCC(=O)O)NC(=O)[C@H](CC(C)C)NC(=O)[C@H](Cc1ccc(O)cc1)NC(=O)[C@H](CCCCN)NC(=O)[C@H](CO)NC(=O)[C@@H](NC(=O)[C@H](CC(=O)O)NC(=O)[C@H](CO)NC(=O)[C@@H](NC(=O)[C@H](Cc1ccccc1)NC(=O)[C@@H](NC(=O)CNC(=O)[C@H](Cc1c[nH]cn1)NC(=O)C(C)(C)NC(=O)CCc1c[nH]cn1)[C@@H](C)O)[C@@H](C)O)C(C)C)C(=O)N[C@@H](C)C(=O)N[C@@H](Cc1c[nH]c2ccccc12)C(=O)N[C@@H](CC(C)C)C(=O)N[C@@H](CC(C)C)C(=O)N[C@@H](CCCCNC(=O)COCCOCCNC(=O)COCCOCCNC(=O)CC[C@H](NC(=O)CC[C@H](NC(=O)CCCCCCCCCCCCCCCCC(=O)O)C(=O)O)C(=O)O)C(=O)N[C@H](C(N)=O)[C@@H](C)O [NN1359] (Desaminohistidyl-[Aib]HGTFTSDVSKYLEEQAAREFIAWLLK([AEEA-AEEA-γGlu-γGlu-C18 diacid])T-NH2),95.3,,,,,significantly improved,7.85,
